Source: US20250171460A1, “INDUCERS OF KLF2 AND METHODS OF USE THEREOF” (Riparian Pharmaceuticals, Inc., priority 2022, published 2025)
pEC50: −log10 of the molar value.

Test system: primary human endothelial cells expressing luciferase under the control of the KLF2 promoter
Assay: KLF2 Induction Cell Based Bioassay (luciferase reporter)
Details: Homo sapiens, Endothelial cell, 24 h, KLF2 promoter luciferase, 24 hours, 11-point concentration response; read-out: Activity Range (EC50)
Outline: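 Reporter cells dosed with 11-point 1:2 series (≤1% DMSO) for 24 h at 37 °C. Secreted Gaussia luciferase in supernatant read as luminescence after injection of 50 μM coelenterazine; signals normalized to DMSO and maximal reference-compound response, EC50 where curve crosses 0.5.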

SMILES	pEC50
COCCN1C(=O)c2oc3cc(-c4nccs4)ccc3c2OCC1(C)C(=O)NCc1ccccc1OC (centres unmarked) [Example 101]	6.30 to 7.29
COc1cc(F)ccc1CNC(=O)C1(C)COc2c(oc3cc(C(=O)NC4CCC4)ccc23)C(=O)N1[C@H]1C[C@@H](OC)C1 (some centres unmarked) [Example 71]	6.30 to 7.29
COCCN1C(=O)c2oc3ccccc3c2OCC1(C)C(=O)NCc1ncccc1OC (centres unmarked) [Example 47]	5.30 to 6.30
CCOC(=O)CN1C(=O)c2oc3ccccc3c2OCC1(C)C(=O)NCc1ccccc1OC (centres unmarked) [Example 4]	5.30 to 6.30
COCCN1C(=O)c2oc3cc(C(=O)NC4CCC4)ccc3c2OCC1(C)C(=O)NCc1c(OC)ccc(F)c1F (centres unmarked) [Example 61]	6.30 to 7.29
COCCN1C(=O)c2oc3ccccc3c2OCC1(C)C(=O)NCc1ccc2ccccc2c1OC (centres unmarked) [Example 41]	5.30 to 6.30
COc1ccccc1CNC(=O)C1(C)COc2c(oc3ccc(F)cc23)C(=O)N1CC(=O)C1CC1 (centres unmarked) [Example 113, 4-(2-cyclopropyl-2-oxoethyl)-9-fluoro-N-(2-methoxybenzyl)-3-methyl-5-oxo-2,3,4,5-tetrahydrobenzofuro[2,3-f][1,4]oxazepine-3-carboxamide]	6.30 to 7.29
COc1cccc(F)c1CNC(=O)[C@@]1(C)COc2c(oc3cc(C(F)(F)F)cnc23)C(=O)N1CC(=O)N(C)C [Example 134, (R)-4-(2-(dimethylamino)-2-oxoethyl)-N-(2-fluoro-6-methoxybenzyl)-3-methyl-5-oxo-8-(trifluoromethyl)-2,3,4,5-tetrahydropyrido[2′,3′:4,5]furo[2,3-f][1,4]oxazepine-3-carboxamide]	6.30 to 7.29
C#CCCN1C(=O)c2oc3ccccc3c2OC[C@]1(C)C(=O)NCc1ccccc1OC [Example 6]	5.30 to 6.30
COCCN1C(=O)c2oc3ccccc3c2OCC1(C)C(=O)NCc1c(Cl)cc(Cl)cc1OC (centres unmarked) [Example 44]	5.30 to 6.30
COc1cccnc1CNC(=O)C1(C)COc2c(oc3cc(C(=O)NC4CCC4)ccc23)C(=O)N1[C@H]1C[C@@H](OC)C1 (some centres unmarked) [Example 54]	6.30 to 7.29
COc1cccc(F)c1CNC(=O)[C@@]1(C)COc2c(oc3ccc(Cl)cc23)C(=O)N1CC(=O)N(C)C (single isomer, unassigned) [Example 107]	6.30 to 7.29
COc1cccc(F)c1CNC(=O)C1(C)COc2c(oc3cc(-c4ncco4)cnc23)C(=O)N1CC(=O)N(C)C (centres unmarked) [Example 124, 4-(2-(dimethylamino)-2-oxoethyl)-N-(2-fluoro-6-methoxybenzyl)-3-methyl-8-(oxazol-2-yl)-5-oxo-2,3,4,5-tetrahydropyrido[2′,3′:4,5]furo[2,3-f][1,4]oxazepine-3-carboxamide]	6.30 to 7.29
COCCN1C(=O)c2oc3ccccc3c2OCC1(C)C(=O)NCc1cc(OC)ccc1OC (centres unmarked) [Example 35]	5.30 to 6.30
COCCN1C(=O)c2oc3ccccc3c2OCC1(C)C(=O)NCc1c(Cl)cccc1OC (centres unmarked) [Example 24]	5.30 to 6.30
[2H]C([2H])([2H])N(C(=O)CN1C(=O)c2oc3ccc(Cl)cc3c2OC[C@]1(C)C(=O)NCc1ncccc1OC)C([2H])([2H])[2H] [Example 103]	6.30 to 7.29
COc1cccc(Cl)c1CNC(=O)C1(C)COc2c(oc3cc(C(=O)NC4CCC4)ccc23)C(=O)N1[C@H]1C[C@@H](OC)C1 (some centres unmarked) [Example 84]	≥ 7.30
COCCN1C(=O)c2oc3cc(C(=O)NC4(C)COC4)ccc3c2OCC1(C)C(=O)NCc1ccc(F)cc1OC (centres unmarked) [Example 76]	6.30 to 7.29
COc1cccnc1CNC(=O)C1(C)COc2c(oc3cc(C(=O)NC4(C)COC4)ccc23)C(=O)N1CC1CC1 (centres unmarked) [Example 52]	6.30 to 7.29
COc1cccnc1CNC(=O)[C@@]1(C)COc2c(oc3cc(-c4nc(C#N)co4)ccc23)C(=O)N1CC(=O)N(C)C [Example 129, (R)-8-(4-cyanooxazol-2-yl)-4-(2-(dimethylamino)-2-oxoethyl)-N-((3-methoxypyridin-2-yl)methyl)-3-methyl-5-oxo-2,3,4,5-tetrahydrobenzofuro[2,3-f][1,4]oxazepine-3-carboxamide]	≥ 7.30
COCCN1C(=O)c2oc3cc(C(=O)NC4(C)COC4)ccc3c2OCC1(C)C(=O)NCc1c(OC)ccc(F)c1F (centres unmarked) [Example 63]	6.30 to 7.29
COCCN1C(=O)c2oc3ccccc3c2OCC1(C)C(=O)NCc1cc2ccccc2cc1OC (centres unmarked) [Example 31]	5.30 to 6.30
COc1ccc(F)cc1CNC(=O)C1(C)COc2c(oc3cc(C(=O)NC4CCC4)ccc23)C(=O)N1[C@H]1C[C@H](OC)C1 (some centres unmarked) [Example 80]	5.30 to 6.30

Same assay, conditions: Homo sapiens, Endothelial cell, Bioactivity of stereoisomers: R isomer; read-out: Bioactivity Bucket, R

SMILES	pEC50
C#CCCN1C(=O)c2oc3ccccc3c2OC[C@]1(C)C(=O)NCc1ccccc1OC [Example 6]	5.30 to 6.30
COc1cccc(F)c1CNC(=O)[C@@]1(C)COc2c(oc3ccc(Cl)cc23)C(=O)N1CC(=O)N(C)C (single isomer, unassigned) [Example 107]	6.30 to 7.29
COc1cccnc1CNC(=O)[C@@]1(C)COc2c(oc3cc(-c4nc(C#N)co4)ccc23)C(=O)N1CC(=O)N(C)C [Example 129, (R)-8-(4-cyanooxazol-2-yl)-4-(2-(dimethylamino)-2-oxoethyl)-N-((3-methoxypyridin-2-yl)methyl)-3-methyl-5-oxo-2,3,4,5-tetrahydrobenzofuro[2,3-f][1,4]oxazepine-3-carboxamide]	≥ 7.30
